Key:
Type in all cases: cell-based
human TLR8 = target: T1, human TLR8 (Homo sapiens, UniProt Q9NR97); assay: TLR8 inhibition reporter assay (HEK-Blue cells, SEAP reporter, R848 stimulation); settings: HEK-Blue cells overexpressing human TLR8, SEAP reporter, R848 15.9 μM
T1 construct: host or cells: HEK-Blue cells (HEK293-derived reporter line)
T1 sequence (Q9NR97 27-1041): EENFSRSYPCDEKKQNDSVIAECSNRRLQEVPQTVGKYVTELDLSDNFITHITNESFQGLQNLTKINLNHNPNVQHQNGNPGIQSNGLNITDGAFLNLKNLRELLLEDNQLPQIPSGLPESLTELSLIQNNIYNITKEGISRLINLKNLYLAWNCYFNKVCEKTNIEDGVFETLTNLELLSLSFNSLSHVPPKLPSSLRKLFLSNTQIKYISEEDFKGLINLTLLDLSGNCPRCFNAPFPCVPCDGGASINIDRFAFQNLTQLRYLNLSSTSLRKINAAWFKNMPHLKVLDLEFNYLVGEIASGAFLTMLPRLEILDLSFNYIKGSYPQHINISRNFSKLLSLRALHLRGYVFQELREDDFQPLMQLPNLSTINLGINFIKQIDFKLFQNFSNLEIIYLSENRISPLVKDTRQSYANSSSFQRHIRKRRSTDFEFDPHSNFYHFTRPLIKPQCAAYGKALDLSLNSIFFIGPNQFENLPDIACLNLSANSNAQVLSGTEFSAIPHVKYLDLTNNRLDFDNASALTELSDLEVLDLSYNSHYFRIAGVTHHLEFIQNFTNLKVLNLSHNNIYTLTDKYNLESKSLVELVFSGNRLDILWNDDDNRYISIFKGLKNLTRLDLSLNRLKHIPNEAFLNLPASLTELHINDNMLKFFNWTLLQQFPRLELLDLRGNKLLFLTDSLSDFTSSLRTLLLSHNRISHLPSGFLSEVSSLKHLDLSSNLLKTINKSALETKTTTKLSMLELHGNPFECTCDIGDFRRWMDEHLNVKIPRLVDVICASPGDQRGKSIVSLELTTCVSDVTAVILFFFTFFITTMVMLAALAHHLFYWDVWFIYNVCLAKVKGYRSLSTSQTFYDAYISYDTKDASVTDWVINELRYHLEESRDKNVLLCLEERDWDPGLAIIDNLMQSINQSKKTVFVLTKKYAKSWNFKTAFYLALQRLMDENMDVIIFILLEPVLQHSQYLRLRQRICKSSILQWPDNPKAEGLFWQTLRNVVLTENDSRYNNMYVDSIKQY
How it was run: (§1)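 HEK-Blue cells overexpressing the receptor, with NF-κB/AP-1-driven SEAP, were pre-treated 30 min at room temperature with compound (0.05 nM–50 μM), then stimulated with gardiquimod 7.5 μM (TLR7), R848 15.9 μM (TLR8) or ODN2006 5 nM (TLR9). SEAP was read after 22 h at 37 °C as percent inhibition.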

human TLR9 = target: T2, human TLR9 (Homo sapiens, UniProt Q9NR96); assay: TLR9 inhibition reporter assay (HEK-Blue cells, SEAP reporter, ODN2006 stimulation); settings: HEK-Blue cells overexpressing human TLR9, SEAP reporter, ODN2006 5 nM
T2 construct: host or cells: HEK-Blue cells (HEK293-derived reporter line)
T2 sequence (Q9NR96 26-1032): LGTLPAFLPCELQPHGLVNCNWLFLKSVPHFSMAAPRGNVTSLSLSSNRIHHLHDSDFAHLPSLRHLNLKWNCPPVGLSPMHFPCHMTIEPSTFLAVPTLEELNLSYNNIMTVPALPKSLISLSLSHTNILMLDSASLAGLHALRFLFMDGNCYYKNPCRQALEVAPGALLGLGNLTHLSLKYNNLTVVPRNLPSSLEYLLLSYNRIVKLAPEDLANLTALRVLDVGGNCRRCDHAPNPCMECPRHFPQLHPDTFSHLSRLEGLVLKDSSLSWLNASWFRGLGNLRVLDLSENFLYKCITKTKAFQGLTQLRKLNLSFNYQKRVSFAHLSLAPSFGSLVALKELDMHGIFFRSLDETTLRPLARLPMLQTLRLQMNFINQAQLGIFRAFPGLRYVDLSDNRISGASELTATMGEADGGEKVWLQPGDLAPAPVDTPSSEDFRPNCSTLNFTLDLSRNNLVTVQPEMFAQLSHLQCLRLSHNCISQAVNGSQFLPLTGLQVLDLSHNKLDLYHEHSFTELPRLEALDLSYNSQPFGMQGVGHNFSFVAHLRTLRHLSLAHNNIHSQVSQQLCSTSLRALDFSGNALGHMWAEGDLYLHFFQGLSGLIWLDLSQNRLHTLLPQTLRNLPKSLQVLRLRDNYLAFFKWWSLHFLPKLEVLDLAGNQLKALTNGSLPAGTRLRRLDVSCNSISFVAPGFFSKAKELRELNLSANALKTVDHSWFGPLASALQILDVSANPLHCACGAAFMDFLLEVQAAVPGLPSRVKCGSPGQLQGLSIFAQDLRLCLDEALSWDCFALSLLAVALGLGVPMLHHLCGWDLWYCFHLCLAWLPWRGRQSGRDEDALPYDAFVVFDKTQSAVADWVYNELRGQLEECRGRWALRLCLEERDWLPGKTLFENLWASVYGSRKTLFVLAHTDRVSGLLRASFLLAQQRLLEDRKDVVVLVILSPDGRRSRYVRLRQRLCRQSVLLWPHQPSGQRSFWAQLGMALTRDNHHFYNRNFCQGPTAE
How it was run: as §1

human TLR7 = target: T3, human TLR7 (Homo sapiens, UniProt Q9NYK1); assay: TLR7 inhibition reporter assay (HEK-Blue cells, SEAP reporter, gardiquimod stimulation); settings: HEK-Blue cells overexpressing human TLR7, SEAP reporter, gardiquimod 7.5 μM
T3 construct: host or cells: HEK-Blue cells (HEK293-derived reporter line)
T3 sequence (Q9NYK1 27-1049): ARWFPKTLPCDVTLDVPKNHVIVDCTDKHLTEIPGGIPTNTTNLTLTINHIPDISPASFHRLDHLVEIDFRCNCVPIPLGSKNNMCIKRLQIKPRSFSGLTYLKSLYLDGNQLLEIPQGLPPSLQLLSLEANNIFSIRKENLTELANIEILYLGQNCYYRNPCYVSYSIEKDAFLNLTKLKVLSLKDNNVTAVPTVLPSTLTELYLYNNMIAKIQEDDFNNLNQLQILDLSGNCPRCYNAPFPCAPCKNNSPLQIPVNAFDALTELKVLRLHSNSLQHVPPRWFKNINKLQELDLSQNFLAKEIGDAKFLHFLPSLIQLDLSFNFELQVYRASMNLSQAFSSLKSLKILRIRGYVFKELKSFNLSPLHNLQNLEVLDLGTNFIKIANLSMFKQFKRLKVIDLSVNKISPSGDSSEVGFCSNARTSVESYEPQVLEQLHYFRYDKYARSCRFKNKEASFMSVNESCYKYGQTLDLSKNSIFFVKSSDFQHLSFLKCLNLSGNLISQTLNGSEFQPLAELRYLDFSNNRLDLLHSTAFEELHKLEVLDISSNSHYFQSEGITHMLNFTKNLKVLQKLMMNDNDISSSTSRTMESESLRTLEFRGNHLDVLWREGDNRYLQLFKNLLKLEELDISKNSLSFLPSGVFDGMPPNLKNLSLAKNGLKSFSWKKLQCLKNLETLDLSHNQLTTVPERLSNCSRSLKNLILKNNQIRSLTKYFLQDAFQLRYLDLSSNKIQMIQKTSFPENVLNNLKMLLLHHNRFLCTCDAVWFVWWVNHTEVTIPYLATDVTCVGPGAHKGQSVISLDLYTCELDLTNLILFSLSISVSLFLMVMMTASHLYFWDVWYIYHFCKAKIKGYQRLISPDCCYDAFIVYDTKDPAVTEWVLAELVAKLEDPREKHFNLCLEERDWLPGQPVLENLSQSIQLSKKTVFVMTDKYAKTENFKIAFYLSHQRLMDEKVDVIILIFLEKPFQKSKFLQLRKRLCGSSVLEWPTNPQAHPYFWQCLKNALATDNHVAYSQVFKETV
How it was run: as §1

Row | IC50 (human TLR8) | IC50 (human TLR9) | IC50 (human TLR7) | Structure (SMILES)
1 | < 100 nM | 1000 to 50000 nM | < 100 nM | CCN(C)CCC(=O)N1CCC(c2ccc3[nH]c(-c4cc(C)c5nnnn5c4)c(C(C)C)c3c2)CC1 [Example 625, 3-(ethyl(methyl)amino)-1-(4-(3-isopropyl-2-(8-methyltetrazolo[1,5-a]pyridin-6-yl)-1H-indol-5-yl)piperidin-1-yl)propan-1-one]
2 | < 100 nM | 1000 to 50000 nM | < 100 nM | COc1cc(-c2[nH]c3ccc(C4CCN(Cc5cnn[nH]5)CC4)cc3c2C(C)C)nn2ncnc12 [Example 860, 6-(5-(1-((1H-1,2,3-triazol-5-yl)methyl)piperidin-4-yl)-3-isopropyl-1H-indol-2-yl)-8-methoxy-[1,2,4]triazolo[1,5-b]pyridazine]
3 | < 100 nM | 100 to 1000 nM | < 100 nM | CC(C)c1c(-c2ccnc3[nH]ncc23)[nH]c2ccc(C3CCN(CCN)CC3)cc12 [Example 655, 2-(4-(3-isopropyl-2-(1H-pyrazolo[3,4-b]pyridin-4-yl)-1H-indol-5-yl)piperidin-1-yl)ethan-1-amine]
4 | < 100 nM | 1000 to 50000 nM | < 100 nM | Cc1cc2nnnn2cc1-c1[nH]c2ccc(C3CCN(Cc4ccn(C)n4)CC3)cc2c1C(C)C [Example 887, 6-(3-isopropyl-5-(1-((1-methyl-1H-pyrazol-3-yl)methyl)piperidin-4-yl)-1H-indol-2-yl)-7-methyltetrazolo[1,5-a]pyridine]
5 | < 100 nM | < 100 nM | 100 to 1000 nM | Cc1c(-c2ncnc3[nH]ccc23)[nH]c2ccc(C3CCN(C4CCN(C(C)C)CC4)CC3)cc12 [Example 814, 4-(5-(1′-isopropyl-[1,4′-bipiperidin]-4-yl)-3-methyl-1H-indol-2-yl)-7H-pyrrolo[2,3-d]pyrimidine]
6 | 100 to 1000 nM | > 50000 nM | 100 to 1000 nM | CC(=O)N1CCC(c2ccc3[nH]c(-c4ccnc5[nH]ncc45)c(C(C)C)c3c2)CC1 [Example 592, 1-(4-(3-isopropyl-2-(1H-pyrazolo[3,4-b]pyridin-4-yl)-1H-indol-5-yl)piperidin-1-yl)ethan-1-one]

More lines, now with the values behind:

Row | Structure (SMILES) | IC50 (human TLR8) | IC50 (human TLR9) | IC50 (human TLR7)
7 | Cc1cc(-c2[nH]c3ccc(C4CCNCC4)cc3c2C(C)C)cc2c(O)c(C#N)cnc12 [Example 107, 4-hydroxy-6-(3-isopropyl-5-(piperidin-4-yl)-1H-indol-2-yl)-8-methylquinoline-3-carbonitrile] | > 3130 nM | 1000 to 50000 nM | 1000 to 50000 nM
8 | CC(C)c1c(-c2n[nH]c3ncccc23)[nH]c2ccc(C3CCNCC3)cc12 [Example 18, 3-(3-isopropyl-5-(piperidin-4-yl)-1H-indol-2-yl)-1H-pyrazolo[3,4-b]pyridine] | < 100 nM | 1000 to 50000 nM | < 100 nM
9 | Cc1cc(-c2[nH]c3ccc(C4CCNCC4)cc3c2C(C)C)c(C)n2nnnc12 [Example 74, 6-(3-isopropyl-5-(piperidin-4-yl)-1H-indol-2-yl)-5,8-dimethyltetrazolo[1,5-a]pyridine] | < 100 nM | 1000 to 50000 nM | < 100 nM
10 | CNC(=O)CN1CCC(c2ccc3[nH]c(-c4ccnc5[nH]ncc45)c(C(C)C)c3c2)CC1 [Example 276, 2-(4-(3-isopropyl-2-(1H-pyrazolo[3,4-b]pyridin-4-yl)-1H-indol-5-yl)piperidin-1-yl)-N-methylacetamide] | < 100 nM | 1000 to 50000 nM | < 100 nM
11 | Cc1c(-c2ccnc3cn[nH]c23)[nH]c2ccc(C3CCNCC3)cc12 [Example 55, 7-(3-methyl-5-(piperidin-4-yl)-1H-indol-2-yl)-1H-pyrazolo [4,3-b]pyridine] | 1000 to 50000 nM | 1000 to 50000 nM | 100 to 1000 nM
12 | CC(C)c1c(-c2ccnc3[nH]ncc23)[nH]c2ccc(C3CCN(C(=O)CN4CC[C@@H](O)C4)CC3)cc12 [Example 579, (R)-2-(3-hydroxypyrrolidin-1-yl)-1-(4-(3-isopropyl-2-(1H-pyrazolo[3,4-b]pyridin-4-yl)-1H-indol-5-yl)piperidin-1-yl)ethan-1-one] | < 100 nM | 100 to 1000 nM | < 100 nM
13 | Cc1nc2cc(-c3[nH]c4ccc(C5CCN(C(=O)CN(C)C)CC5)cc4c3C(C)C)cc(C)c2o1 [Example 491, 2-(dimethylamino)-1-(4-(2-(2,7-dimethylbenzo[d]oxazol-5-yl)-3-isopropyl-1H-indol-5-yl)piperidin-1-yl)ethan-1-one] | 1000 to 50000 nM | 1000 to 50000 nM | 100 to 1000 nM
14 | FC(F)Cc1c(-c2ccn3ccnc3c2)[nH]c2ccc(C3CCNCC3)cc12 [Example 189, 7-(3-(2,2-difluoroethyl)-5-(piperidin-4-yl)-1H-indol-2-yl)imidazo[1,2-a]pyridine] | 100 to 1000 nM | < 100 nM | < 100 nM
15 | Cc1cc(-c2[nH]c3ccc(C4CCN(CC(=O)N(C)C)CC4)cc3c2C(C)C)c(C)n2nnnc12 [Example 310, 2-(4-(2-(5,8-dimethyltetrazolo[1,5-a]pyridin-6-yl)-3-isopropyl-1H-indol-5-yl)piperidin-1-yl)-N,N-dimethylacetamide] | < 100 nM | 1000 to 50000 nM | < 100 nM
